What was measured:
[1] = The drug is tested on Bacteroides coprophilus strain: DSM18228 for biotransformation. The drug concentrations were measured before and after a 12-h incubation by liquid-chromatography-coupled mass spectrometry (LC–MS); settings: 2 µM
[2] = The drug is tested on Providencia rettgeri strain: DSM1131 for biotransformation. The drug concentrations were measured before and after a 12-h incubation by liquid-chromatography-coupled mass spectrometry (LC–MS); assay type: ADME; design: dose 2 uM, timepoint 0 vs 12 hours; settings: 2 µM
[3] = bifidobacterium adolescentis, 12 h, 2 µM
Description: The drug is tested on Bifidobacterium adolescentis strain: ATCC 15703 for biotransformation. The drug concentrations were measured before and after a 12-h incubation by liquid-chromatography-coupled mass spectrometry (LC–MS)

[4] = anaerostipes sp., 12 h, 2 µM
Description: The drug is tested on Anaerostipes sp. strain: fecal isolate for biotransformation. The drug concentrations were measured before and after a 12-h incubation by liquid-chromatography-coupled mass spectrometry (LC–MS)

[5] = The drug is tested on Collinsella intestinalis strain: DSM13280 for biotransformation. The drug concentrations were measured before and after a 12-h incubation by liquid-chromatography-coupled mass spectrometry (LC–MS); settings: 2 µM
[6] = The drug is tested on Bacteroides fragilis strain: ATCC43859 for biotransformation. The drug concentrations were measured before and after a 12-h incubation by liquid-chromatography-coupled mass spectrometry (LC–MS); settings: 2 µM
[7] = The drug is tested on Anaerococcus hydrogenalis strain: DSM7454 for biotransformation. The drug concentrations were measured before and after a 12-h incubation by liquid-chromatography-coupled mass spectrometry (LC–MS); settings: 2 µM
[8] = The drug is tested on Providencia stuartii strain: ATCC25827 for biotransformation. The drug concentrations were measured before and after a 12-h incubation by liquid-chromatography-coupled mass spectrometry (LC–MS); settings: 2 µM
[9] = bacteroides fragilis, 12 h, 2 µM
Description: The drug is tested on Bacteroides fragilis strain: DS-208 for biotransformation. The drug concentrations were measured before and after a 12-h incubation by liquid-chromatography-coupled mass spectrometry (LC–MS)

[10] = bacteroides fragilis, 12 h, 2 µM; remark: listed apart in the source
Description: The drug is tested on Bacteroides fragilis strain: 3397 (T10) for biotransformation. The drug concentrations were measured before and after a 12-h incubation by liquid-chromatography-coupled mass spectrometry (LC–MS)

[11] = The drug is tested on Coprococcus comes strain: ATCC27758 for biotransformation. The drug concentrations were measured before and after a 12-h incubation by liquid-chromatography-coupled mass spectrometry (LC–MS); assay type: ADME; design: dose 2 uM, timepoint 0 vs 12 hours; settings: 2 µM
[12] = The drug is tested on Parabacteroides merdae strain: ATCC43184 for biotransformation. The drug concentrations were measured before and after a 12-h incubation by liquid-chromatography-coupled mass spectrometry (LC–MS); settings: 2 µM
[13] = bacteroides stercoris, 12 h, 2 µM
Description: The drug is tested on Bacteroides stercoris strain: ATCC43183 for biotransformation. The drug concentrations were measured before and after a 12-h incubation by liquid-chromatography-coupled mass spectrometry (LC–MS)

[14] = The drug is tested on Eubacterium hallii strain: DSM3353 for biotransformation. The drug concentrations were measured before and after a 12-h incubation by liquid-chromatography-coupled mass spectrometry (LC–MS); settings: anaerobutyricum hallii, 2 µM
[15] = The drug is tested on Subdoligranulum variabile strain: DSM15176 for biotransformation. The drug concentrations were measured before and after a 12-h incubation by liquid-chromatography-coupled mass spectrometry (LC–MS); settings: 2 µM
[16] = The drug is tested on Bacteroides dorei strain: DSM17855 for biotransformation. The drug concentrations were measured before and after a 12-h incubation by liquid-chromatography-coupled mass spectrometry (LC–MS); settings: phocaeicola dorei, 2 µM
[17] = The drug is tested on Bacteroides ovatus strain: ATCC8483 for biotransformation. The drug concentrations were measured before and after a 12-h incubation by liquid-chromatography-coupled mass spectrometry (LC–MS); settings: 2 µM
[18] = The drug is tested on Bacteroides vulgatus strain: ATCC8482 for biotransformation. The drug concentrations were measured before and after a 12-h incubation by liquid-chromatography-coupled mass spectrometry (LC–MS); settings: phocaeicola vulgatus, 2 µM
[19] = bacteroides fragilis, 12 h, 2 µM; remark: listed apart in the source
Description: The drug is tested on Bacteroides fragilis strain: NCTC 9343 for biotransformation. The drug concentrations were measured before and after a 12-h incubation by liquid-chromatography-coupled mass spectrometry (LC–MS)

| SMILES | Bacterial Biotransformation [1] | Bacterial Biotransformation [2] | Bacterial Biotransformation [3] | Bacterial Biotransformation [4] | Bacterial Biotransformation [5] | Bacterial Biotransformation [6] | Bacterial Biotransformation [7] | Bacterial Biotransformation [8] | Bacterial Biotransformation [9] | Bacterial Biotransformation [10] | Bacterial Biotransformation [11] | Bacterial Biotransformation [12] | Bacterial Biotransformation [13] | Bacterial Biotransformation [14] | Bacterial Biotransformation [15] | Bacterial Biotransformation [16] | Bacterial Biotransformation [17] | Bacterial Biotransformation [18] | Bacterial Biotransformation [19] |
| --- | --- | --- | --- | --- | --- | --- | --- | --- | --- | --- | --- | --- | --- | --- | --- | --- | --- | --- | --- |
| CC(C)N(CCC(C(N)=O)(c1ccccc1)c1ccccn1)C(C)C.O=P(O)(O)O (centres undefined) [DISOPYRAMIDE PHOSPHATE] | Compound NOT metabolized | Compound NOT metabolized | Compound NOT metabolized | Compound NOT metabolized | Compound NOT metabolized | Compound NOT metabolized | Compound NOT metabolized | Compound NOT metabolized | Compound NOT metabolized | Compound NOT metabolized | Compound NOT metabolized | Compound NOT metabolized | Compound NOT metabolized | Compound NOT metabolized | Compound NOT metabolized | Compound NOT metabolized | Compound NOT metabolized | – | – |
| CN(C)CCOC(C)(c1ccccc1)c1ccccn1.O=C(O)CCC(=O)O (centres undefined) [DOXYLAMINE SUCCINATE] | Compound NOT metabolized | – | Compound NOT metabolized | Compound NOT metabolized | Compound NOT metabolized | Compound NOT metabolized | Compound NOT metabolized | Compound NOT metabolized | Compound NOT metabolized | Compound NOT metabolized | Compound NOT metabolized | Compound NOT metabolized | Compound NOT metabolized | Compound NOT metabolized | Compound NOT metabolized | Compound NOT metabolized | Compound NOT metabolized | Compound NOT metabolized | Compound NOT metabolized |
| O=C(CCCN1CCC(O)(c2ccc(Cl)cc2)CC1)c1ccc(F)cc1 [HALOPERIDOL] | – | Compound NOT metabolized | Compound NOT metabolized | Compound NOT metabolized | Compound NOT metabolized | Compound NOT metabolized | Compound NOT metabolized | Compound NOT metabolized | Compound NOT metabolized | Compound NOT metabolized | Compound NOT metabolized | Compound NOT metabolized | Compound NOT metabolized | Compound NOT metabolized | Compound NOT metabolized | Compound NOT metabolized | Compound NOT metabolized | Compound NOT metabolized | Compound NOT metabolized |
| CN1C(=O)CC(C)(c2ccccc2)C1=O (centres undefined) [METHSUXIMIDE] | Compound NOT metabolized | Compound NOT metabolized | Compound NOT metabolized | Compound NOT metabolized | Compound NOT metabolized | Compound NOT metabolized | Compound NOT metabolized | – | Compound NOT metabolized | Compound NOT metabolized | Compound NOT metabolized | Compound NOT metabolized | Compound NOT metabolized | Compound NOT metabolized | Compound NOT metabolized | Compound metabolized | Compound NOT metabolized | – | Compound NOT metabolized |
| CN1CCOC(c2ccccc2)c2ccccc2C1 (centres undefined) [NEFOPAM] | Compound NOT metabolized | Compound NOT metabolized | Compound NOT metabolized | Compound NOT metabolized | Compound NOT metabolized | Compound NOT metabolized | Compound NOT metabolized | Compound NOT metabolized | Compound NOT metabolized | Compound NOT metabolized | Compound NOT metabolized | Compound NOT metabolized | Compound NOT metabolized | Compound NOT metabolized | Compound NOT metabolized | – | Compound NOT metabolized | – | Compound NOT metabolized |
| Cc1cc2c(s1)Nc1ccccc1N=C2N1CCN(C)CC1 [OLANZAPINE] | Compound metabolized | Compound NOT metabolized | Compound NOT metabolized | Compound NOT metabolized | Compound NOT metabolized | – | Compound NOT metabolized | – | Compound NOT metabolized | Compound metabolized | Compound NOT metabolized | – | Compound NOT metabolized | Compound NOT metabolized | Compound NOT metabolized | Compound NOT metabolized | – | Compound NOT metabolized | Compound NOT metabolized |
| COc1ccc(Cc2nccc3cc(OC)c(OC)cc23)cc1OC [PAPAVERINE] | Compound NOT metabolized | Compound NOT metabolized | Compound NOT metabolized | Compound NOT metabolized | Compound NOT metabolized | Compound NOT metabolized | Compound NOT metabolized | Compound NOT metabolized | Compound NOT metabolized | Compound NOT metabolized | Compound NOT metabolized | Compound NOT metabolized | Compound NOT metabolized | Compound NOT metabolized | Compound NOT metabolized | Compound metabolized | Compound NOT metabolized | – | – |

Reference: ChEMBL document CHEMBL5303573, “Mapping human microbiome drug metabolism by gut bacteria and their genes” (Nature, 2019)
